Patent US20240401073A1, “ALS INHIBITOR HERBICIDE TOLERANT BETA VULGARIS MUTANTS” (KWS SAAT SE & Co. KGaA, priority 2021, published 2024)

What was measured:
[1] = test system: heterozygous BvALS_D371E mutants; format: in vivo, Beta vulgaris (sugar beet); settings: greenhouse, 1× recommended field application concentration, treated when first true leaves appeared, rated 14 days after treatment; growing of first pair of true leaves as indicator
Source text: (§1) The identified ALS mutants have been tested repeatedly in CONVISO® ONE treatments in concentrations used for field treatments as well as in treatment with the individual active ingredients of CONVISO® ONE, Foramsulfuron and Thiencarbazon-methyl, treatment with Pulsar® 40 (active ingredient: Imazamox), treatment with active ingredient Bispyribac, and treatment with Broadway® (active ingredients: Florasulam, Pyroxylam) (Table 1). All herbicide treatments has been conducted with amount corresponding to 1× recommended field application concentration: Offspring seed of both, a plant homozygous and heterozygous for BvALS_D371E mutation as well as the M0-background genotype were sown, cultivated in a greenhouse and transplanted to single pots after emergence. Herbicide treatments were performed when first true leaves appeared.
(§2) Tolerance ratings were taken 14 days after treatment. Growing of the first pair of true leaves was used as indicator for herbicide tolerance.

[2] = test system: homozygous BvALS_D371E mutants; format: in vivo, Beta vulgaris (sugar beet); settings: greenhouse, 1× recommended field application concentration, treated when first true leaves appeared, rated 14 days after treatment; growing of first pair of true leaves as indicator
Source text: as §1, §2

[3] = test system: sugar beet mutant line carrying W569L; settings: WO 2012/049268; cited from earlier work

SMILES	Herbicide tolerance, Heterozygous mutants [1]	Herbicide tolerance, Homozygous mutants [2]	herbicide tolerance of W569L mutant line [3]
COC(=O)c1csc(C)c1S(=O)(=O)NC(=O)n1nc(OC)n(C)c1=O [thiencarbazone-methyl]	tolerant	Tolerant	tolerant
COc1cc(OC)nc(Oc2cccc(Oc3nc(OC)cc(OC)n3)c2C(=O)O)n1 [Bispyribac]	tolerant	Tolerant	–
COc1cc(OC)nc(NC(=O)NS(=O)(=O)c2cc(NC=O)ccc2C(=O)N(C)C)n1 [foramsulfuron]	tolerant	Tolerant	tolerant
